Data: US11000509B2, “Methods and compositions for daily ophthalmic administration of phentolamine to improve visual performance” (Ocuphire Pharma, Inc., priority 2013, dated 2021)
Several values for one entry are separate records, joined by “and”; a condition that tells them apart may be missing. Identical values can stand only once. Counter-ions that a name gives are not always drawn. Marks after values point to notes of the source that are not given here.

System: eyes of patients with pupil size in dim light of greater than 7 mm
Test: Example 2 clinical study: pupil diameter by NeurOptics pupilometer; one drop oxymetazoline (Visine LR) then one drop test article in Tears Naturale II in each eye
Format: in vivo, humans
Conditions: for Range of pupil diameters: immediately prior to administration
Procedure: Sixteen patients were randomized into four groups (of four subjects each). Each group was treated on three successive study visits separated by at least 4 days with one drop of ophthalmic oxymetazoline solution (Visine LR®) in each eye followed by one drop test article in each eye. The test article was a 0.2% (w/v) phentolamine mesylate solution, 0.4% (w/v) phentolamine mesylate solution, 0.8% (w/v) phentolamine mesylate solution, or placebo. Test articles contained the designed amount of phentolamine mesylate in a solution of Tears Naturale II® (from Alcon Labs). Placebo was just Tears Naturale II® (from Alcon Labs). Tears Naturale II® (from Alcon Labs) contains Dextran 70 (0.1% by weight), Hydroxypropyl Methylcellulose 2910 (0.3% by weight), Polyquarternium-1 (0.001% by weight), potassium chloride, water (purified), sodium borate, sodium chloride, and hydrochloric acid and/or sodium hydroxide as necessary to adjust the pH. The patients' eye redness and pupil diameters were recorded at baseline (i.e., prior to treatment administration), and at 30 minutes, 1 hour, 2 hours, 4 hours, and 8 hours after administration of test articles. The incidence of any treatment-emergent adverse events was also recorded. Total study duration was approximately nine hours.
Eye redness of patients' eyes was evaluated by the research assistant and recorded as a single integer of value 0 (no redness) to 4 (extreme redness) at baseline and each time point after treatment. Pupil diameters were measured to within 0.1 mm for each eye at baseline and each subsequent time point using a NeurOptics™ pupilometer. Monocular high contrast visual acuity was measured for each eye under photopic conditions at baseline and each subsequent time point in a darkened room using a Precision Vision™ High Contrast (100% tint) Visual Acuity Chart (Catalog #2102) backlit by the Precision Vision Illumination Box. Monocular low contrast visual acuity was measured for each eye under photopic conditions at baseline and each subsequent time point in a darkened room using a Precision Vision™ Low Contrast (5% tint) Visual Acuity Chart (Catalog #2186) backlit by the Precision Vision Illumination Box. Effect of treatment on glare was assessed using an experimental test method consisting of a panel with a high wattage central light emitting diode (LED) and a set of 7 lower wattage red LEDs radiating horizontally and vertically from the central light.
Comparisons of changes in mean values within treatment groups were tested for significance using two-tailed paired two sample t-tests with a threshold for significance set at p<0.01 (Bonferroni Correction for multiple paired t-tests). Differences between treatment groups with respect to mean values for pupil size over the course of the study were tested for significance using repeated measure ANOVA (which discards data from subjects lacking any data points). Differences in mean eye redness between treatment groups were evaluated using Kruskal-Wallis nonparametric testing. Differences in means between treatment groups at individual time points were tested for significance using one-way ANOVA.

[1] = 0.2% (w/v) solution, 30 min after treatment
[2] = 0.2% (w/v) solution, 1 hour after treatment
[3] = 0.2% (w/v) solution, 2 hours after treatment
[4] = 0.2% (w/v) solution, 4 hours after treatment
[5] = 0.2% (w/v) solution, 8 hours after treatment
[6] = 0.2% (w/v) solution, Baseline, prior to treatment
[7] = 0.4% (w/v) solution, 30 min after treatment
[8] = 0.4% (w/v) solution, 1 hour after treatment
[9] = 0.4% (w/v) solution, 2 hours after treatment
[10] = 0.4% (w/v) solution, 4 hours after treatment
[11] = 0.4% (w/v) solution, 8 hours after treatment
[12] = 0.4% (w/v) solution, Baseline, prior to treatment
[13] = 0.8% (w/v) solution, 30 min after treatment
[14] = 0.8% (w/v) solution, 1 hour after treatment
[15] = 0.8% (w/v) solution, 2 hours after treatment
[16] = 0.8% (w/v) solution, 4 hours after treatment
[17] = 0.8% (w/v) solution, 8 hours after treatment
[18] = 0.8% (w/v) solution, Baseline, prior to treatment

Cc1ccc(N(CC2=NCCN2)c2cccc(O)c2)cc1 [Phentolamine Mesylate, phentolamine mesylate]
Maximum pupil diameter [1]: 9.2 mm | Mean change in pupil diameter from baseline [1]: −0.04 mm | Mean pupil diameter [1]: 7.74 mm | Minimum pupil diameter [1]: 5.1 mm | Maximum pupil diameter [2]: 8.9 mm | Mean change in pupil diameter from baseline [2]: −0.24 mm | Mean pupil diameter [2]: 7.54 mm | Minimum pupil diameter [2]: 4.9 mm | Maximum pupil diameter [3]: 8.4 mm | Mean change in pupil diameter from baseline [3]: −0.75 mm | Mean pupil diameter [3]: 7.01^c mm | Minimum pupil diameter [3]: 4.7 mm | Maximum pupil diameter [4]: 8.0 mm | Mean change in pupil diameter from baseline [4]: −0.69 mm | Mean pupil diameter [4]: 7.30^d mm | Minimum pupil diameter [4]: 6.3 mm | Maximum pupil diameter [5]: 8.5 mm | Mean change in pupil diameter from baseline [5]: −0.59 mm | Mean pupil diameter [5]: 7.18 mm | Minimum pupil diameter [5]: 4.7 mm | Range of pupil diameters (0.2% (w/v) solution, Baseline): 5.2-8.8 mm | Maximum pupil diameter [6]: 8.8 mm | Mean pupil diameter [6]: 7.8 mm and 7.78 mm | Minimum pupil diameter [6]: 5.2 mm | change from baseline in mean pupil diameter, significance (0.2%, 0.4% and 0.8% (w/v), by one hour post treatment, p<0.01): significant | mean pupil diameter between different doses (0.2%, 0.4%, 0.8% (w/v), any time point): no statistically significant differences | Maximum pupil diameter [7]: 8.8 mm | Mean change in pupil diameter from baseline [7]: 0.00 mm | Mean pupil diameter [7]: 7.72 mm | Minimum pupil diameter [7]: 5.6 mm | Maximum pupil diameter [8]: 8.3 mm | Mean change in pupil diameter from baseline [8]: −0.29 mm | Mean pupil diameter [8]: 7.41 mm | Minimum pupil diameter [8]: 5.5 mm | Maximum pupil diameter [9]: 8.4 mm | Mean change in pupil diameter from baseline [9]: −0.64 mm | Mean pupil diameter [9]: 7.05 mm | Minimum pupil diameter [9]: 5.0 mm | Maximum pupil diameter [10]: 8.1 mm | Mean change in pupil diameter from baseline [10]: −0.74 mm | Mean pupil diameter [10]: 7.01 mm | Minimum pupil diameter [10]: 5.0 mm | Maximum pupil diameter [11]: 8.6 mm | Mean change in pupil diameter from baseline [11]: −0.74 mm | Mean pupil diameter [11]: 7.01 mm | Minimum pupil diameter [11]: 4.8 mm | Range of pupil diameters (0.4% (w/v) solution, Baseline): 5.8-8.6 mm | Maximum pupil diameter [12]: 8.6 mm | Mean pupil diameter [12]: 7.7 mm and 7.71 mm | Minimum pupil diameter [12]: 5.8 mm | Maximum pupil diameter [13]: 9.2 mm | Mean change in pupil diameter from baseline [13]: −0.10 mm | Mean pupil diameter [13]: 7.87 mm | Minimum pupil diameter [13]: 5.2 mm | Maximum pupil diameter [14]: 9.1 mm | Mean change in pupil diameter from baseline [14]: −0.27 mm | Mean pupil diameter [14]: 7.69 mm | Minimum pupil diameter [14]: 5.1 mm | Maximum pupil diameter [15]: 8.7 mm | Mean change in pupil diameter from baseline [15]: −0.66 mm | Mean pupil diameter [15]: 7.30 mm | Minimum pupil diameter [15]: 4.7 mm | Maximum pupil diameter [16]: 8.6 mm | Mean change in pupil diameter from baseline [16]: −0.64 mm | Mean pupil diameter [16]: 7.32 mm | Minimum pupil diameter [16]: 5.5 mm | Maximum pupil diameter [17]: 8.7 mm | Mean change in pupil diameter from baseline [17]: −0.56 mm | Mean pupil diameter [17]: 7.40 mm | Minimum pupil diameter [17]: 4.7 mm | Range of pupil diameters (0.8% (w/v) solution, Baseline): 4.6-9.3 mm | Maximum pupil diameter [18]: 9.3 mm | Mean pupil diameter [18]: 8.0 mm and 7.96 mm | Minimum pupil diameter [18]: 4.6 mm | mean pupil diameter compared to placebo (ad hoc Fisher's test) (any concentration (0.2%, 0.4%, 0.8% w/v), 2, 4 and 8 hours): significant differences
